Measured values from ChEMBL document CHEMBL1149998, “Tannins as selective inhibitors of protein kinase C” (Bioorg Med Chem Lett, 1992).

What was measured:
[1] = Inhibition of c-AMP kinase PKA; set-up: species or system Bos taurus
[2] = molecular target: Protein kinase C, PKC; classical/novel (Homo sapiens) (UniProt O94806+P17252+P05129+Q05655+P05771+Q02156+P24723+Q15139+Q04759); experiment: Displacement of phorbol [3H]PDBu from protein kinase C; A - Did displace phorbol (PDBu) at 50 uM or less; format: protein assay
[3] = molecular target: Protein kinase C (PKC); experiment: Inhibitory activity against protein kinase C (PKC); format: protein assay, Homo sapiens
[4] = Inhibitory activity against c-AMP kinase; Did not inhibit c-AMP kinase

| Compound | IC50 [1] [µM] | Phorbol displacement [2] [µM] | IC50 [3] [µM] | IC50 [4] |
| --- | --- | --- | --- | --- |
| O=C(OC[C@@H]1O[C@@H](OC(=O)c2cc(O)c(O)c(O)c2)[C@@H](OC(=O)c2cc(O)c(O)c(O)c2)[C@@H](OC(=O)c2cc(O)c(O)c(O)c2)[C@@H]1OC(=O)c1cc(O)c(O)c(O)c1Oc1cc2c(c(O)c1O)-c1c(cc(O)c(O)c1O)C(=O)OC[C@@H]1O[C@@H](OC(=O)c3cc(O)c(O)c(O)c3)[C@@H](OC(=O)c3cc(O)c(O)c(O)c3)[C@@H](OC(=O)c3cc(O)c(O)c(O)c3)[C@@H]1OC2=O)c1cc(O)c(O)c(O)c1 | 32 | < 50 | 3 | – |
| O=C(O[C@@H]1O[C@H]2COC(=O)c3cc(O)c(O)c(O)c3-c3c(cc(O)c(O)c3O)C(=O)O[C@H]2[C@@H]2OC(=O)c3cc(O)c(O)c(O)c3-c3c(cc(O)c(O)c3O)C(=O)O[C@H]12)c1cc(O)c(O)c(Oc2c(O)c(O)c(O)c3c2C(=O)O[C@H]2[C@@H]4OC(=O)c5cc(O)c(O)c(O)c5-c5c(cc(O)c(O)c5O)C(=O)O[C@@H]4[C@H](OC(=O)c4cc(O)c(O)c(Oc5c(O)c(O)c(O)c6c5C(=O)O[C@H]5[C@@H]7OC(=O)c8cc(O)c(O)c(O)c8-c8c(cc(O)c(O)c8O)C(=O)O[C@@H]7[C@H](OC(=O)c7cc(O)c(O)c(Oc8c(O)c(O)c(O)c9c8C(=O)O[C@H]8[C@@H]%10OC(=O)c%11cc(O)c(O)c(O)c%11-c%11c(cc(O)c(O)c%11O)C(=O)O[C@@H]%10[C@H](OC(=O)c%10cc(O)c(O)c(O)c%10)O[C@H]8COC(=O)c8cc(O)c(O)c(O)c8-9)c7)O[C@H]5COC(=O)c5cc(O)c(O)c(O)c5-6)c4)O[C@H]2COC(=O)c2cc(O)c(O)c(O)c2-3)c1 | 22 | < 50 | 10 | – |
| O=C1O[C@H]2[C@@H]3OC(=O)c4cc(O)c(O)c(O)c4-c4c(cc(Oc5c(C(=O)O)cc(O)c(O)c5O)c(O)c4O)C(=O)OC[C@H]2O[C@@H](OC(=O)c2cc(O)c(O)c(O)c2)[C@@H]3OC(=O)c2cc(O)c(O)c3c2C2C1=CC(=O)C(O)(O)C2(O)O3 (some centres not stated) [E181] | 65 | < 50 | 16 | – |
| O=C(O[C@@H]1O[C@H]2COC(=O)c3cc(O)c(O)c(O)c3-c3c(cc(O)c(O)c3O)C(=O)O[C@H]2[C@@H]2OC(=O)c3cc(O)c(O)c(O)c3-c3c(cc(O)c(O)c3O)C(=O)O[C@H]12)c1cc(O)c(O)c(Oc2c(O)c(O)c(O)c3c2C(=O)O[C@H]2[C@@H]4OC(=O)c5cc(O)c(O)c(O)c5-c5c(cc(O)c(O)c5O)C(=O)O[C@@H]4[C@H](OC(=O)c4cc(O)c(O)c(O)c4)O[C@H]2COC(=O)c2cc(O)c(O)c(O)c2-3)c1 | 48 | < 50 | 5 | – |
| O=C(O[C@@H]1O[C@@H]2COC(=O)c3cc(Oc4c(C(=O)O)cc(O)c(O)c4O)c(O)c(O)c3-c3c(cc(O)c(O)c3O)C(=O)O[C@H]([C@H]1O)[C@@H]2O)c1cc(O)c(O)c(O)c1 | 100 | < 50 | 20 | – |
| O=C(OC1COC(=O)c2cc(O)c(O)c(O)c2-c2c(cc(O)c(O)c2O)C(=O)OC1C1OC(=O)c2cc(O)c(O)c(O)c2-c2c(O)c(O)c(O)c3c2C(=O)OC1[C@@H]3O)c1cc(O)c(O)c(O)c1 (some centres not stated) | 84 | < 50 | 11 | – |
| O=C1OCC2OC(=O)c3cc(O)c(O)c(O)c3-c3c(O)c(O)c(O)c4c3C(=O)OC(C2OC(=O)c2cc(O)c(O)c(O)c2-c2c1cc(O)c(O)c2O)C1OC(=O)c2c-4c(O)c(O)c(O)c2[C@@H]1c1c(O)cc(O)c2c1O[C@H](c1ccc(O)c(O)c1)[C@@H](O)C2 (some centres not stated) | 95 | < 50 | 7 | – |
| O=C1OCC2OC(=O)c3cc(O)c(O)c(O)c3-c3c(O)c(O)c(O)c4c3C(=O)OC(C2OC(=O)c2cc(O)c(O)c(O)c2-c2c1cc(O)c(O)c2O)C1OC(=O)C2C4=C(O)C(=O)C23Oc2cc(O)c4c(c2[C@H]13)O[C@H](c1ccc(O)c(O)c1)[C@@H](O)C4 (some centres not stated) | 44 | < 50 | 4 | – |
| O=C(O[C@@H]1O[C@@H]2COC(=O)c3cc(O)c(O)c(O)c3-c3c(cc(O)c(O)c3O)C(=O)O[C@H]([C@H]1OC(=O)c1cc(O)c(O)c(O)c1)[C@@H]2OC(=O)c1cc(O)c(O)c(O)c1)c1cc(O)c(O)c(O)c1 [PUNICAFOLIN] | – | < 50 | 4 | Not Active |
